Reference: patent US11459329B2, “Imidazopyridazine and imidazopyridine compounds and uses thereof” (Incyte Corporation, priority 2018, dated 2022)
Where two headings read alike, the source gives them in different places.

Molecular target: ALK2 (aa 147-end) (Homo sapiens (Human), UniProt Q04771)
Experiment: ALK2 HTRF Assay
Assay type: biochemical
Procedure: The enzymatic assays were conducted in white 384-well polystyrene plates in a final volume of 8 μL. The inhibitors were serially diluted in DMSO and added to the plate wells prior to addition of the other reaction components. The assays were carried out at 25° C. in the assay buffer (50 mM HEPES, pH 7.0, 10% Glycerol, 0.01% Brij50, 10 mM MgCl2, 1 mM EGTA, 5 mM DTT, and 0.01% BSA), containing 50 nM LANCE Ultra ULight™-DNA Topoisomerase 2-alpha peptide (Perkin Elmer TRF0130), and 3 μM ATP. The final concentration of DMSO in the assay was 1% and the enzyme concentration was 0.5 nM for ALK2. […] […] IC50 determination was performed by fitting percent control activity versus the log of the inhibitor concentration using the IDBS XLFit and GraphPad Prism 5.0 software.

[1] = 3 μM ATP, 0.5 nM ALK2, 2 hr, 25° C., read-out: ALK2 IC50

Sequence of ALK2 (aa 147-end) (Q04771 147-509): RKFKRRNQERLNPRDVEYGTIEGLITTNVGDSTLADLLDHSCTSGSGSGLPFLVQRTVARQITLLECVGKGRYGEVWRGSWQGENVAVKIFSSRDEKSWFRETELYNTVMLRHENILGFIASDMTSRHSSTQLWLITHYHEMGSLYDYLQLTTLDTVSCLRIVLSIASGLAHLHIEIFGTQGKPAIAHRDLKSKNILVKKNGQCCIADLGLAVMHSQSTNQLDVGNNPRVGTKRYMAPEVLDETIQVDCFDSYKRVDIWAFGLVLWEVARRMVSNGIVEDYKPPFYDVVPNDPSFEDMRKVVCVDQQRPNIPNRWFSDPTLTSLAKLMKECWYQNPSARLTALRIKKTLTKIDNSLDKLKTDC

IC50 [1] [nM] | SMILES | IC50 [nM]
5 to 100 | Cc1nn2c(-c3ccnc4cc(N5CCN6C(=O)CCC6C5)ccc34)cnc2cc1-c1cnn([C@H]2CC[C@H](O)CC2)c1 (stereo partly drawn) [Example 34, 2-(4-(7-(1-((1R,4R)-4-hydroxycyclohexyl)-1H-pyrazol-4-yl)-6-methylimidazo[1,2-b]pyridazin-3-yl)quinolin-7-yl)hexahydropyrrolo[1,2-a]pyrazin-6(2H)-one] | –
1 to 5 | Cc1cn2c(-c3ccnc4ccccc34)cnc2cc1-c1cnn(C2CCNCC2)c1 [Example 35, 4-(6-methyl-7-(1-(piperidin-4-yl)-1H-pyrazol-4-yl)imidazo[1,2-a]pyridin-3-yl)quinoline] | –
< 1 | Cc1cn2c(-c3ccc(C(N)=O)c(F)c3)cnc2cc1-c1cnn(C2CCNCC2)c1 [Example 36, 2-fluoro-4-(6-methyl-7-(1-(piperidin-4-yl)-1H-pyrazol-4-yl)imidazo[1,2-a]pyridin-3-yl)benzamide] | –
< 1 | Cc1nn2c(-c3ccnc4nc(-c5ccccn5)ccc34)cnc2cc1-c1ccc(CN2CCC2)cc1 [Example 38, 5-(7-(4-(Azetidin-1-ylmethyl)phenyl)-6-methylimidazo[1,2-b]pyridazin-3-yl)-2-(pyridin-2-yl)-1,8-naphthyridine] | –
1 to 5 | CCn1cc(-c2cc3ncc(-c4ccnc5nc(-c6ccccn6)ccc45)n3nc2C)cn1 [Example 39, 5-(7-(1-Ethyl-1H-pyrazol-4-yl)-6-methylimidazo[1,2-b]pyridazin-3-yl)-2-(pyridin-2-yl)-1,8-naphthyridine] | –
< 1 | Cc1nn2c(-c3ccnc4nc(-c5ncccn5)ccc34)cnc2cc1-c1cnn(C(C)C)c1 [Example 40, 5-(7-(1-Isopropyl-1H-pyrazol-4-yl)-6-methylimidazo[1,2-b]pyridazin-3-yl)-2-(pyrimidin-2-yl)-1,8-naphthyridine] | –
1 to 5 | Cc1nn2c(-c3ccnc4nc(-c5cnccn5)ccc34)cnc2cc1-c1cnn([C@H]2CC[C@H](O)CC2)c1 [Example 41, (1R,4R)-4-(4-(6-Methyl-3-(7-(pyrazin-2-yl)-1,8-naphthyridin-4-yl)imidazo[1,2-b]pyridazin-7-yl)-1H-pyrazol-1-yl)cyclohexan-1-ol] | –
1 to 5 | Cc1nn2c(-c3ccnc4nc(-c5cnccn5)ccc34)cnc2cc1-c1ccc(CN2CCC2)cc1 [Example 42, 5-(7-(4-(Azetidin-1-ylmethyl)phenyl)-6-methylimidazo[1,2-b]pyridazin-3-yl)-2-(pyrazin-2-yl)-1,8-naphthyridine] | –
1 to 5 | Cc1nn2c(-c3ccnc4nc(-c5cnccn5)ccc34)cnc2cc1-c1cnn(C(C)C)c1 [Example 43, 5-(7-(1-Isopropyl-1H-pyrazol-4-yl)-6-methylimidazo[1,2-b]pyridazin-3-yl)-2-(pyrazin-2-yl)-1,8-naphthyridine] | –
1 to 5 | Cc1nn2c(-c3ccnc4nc(-c5cnccn5)ccc34)cnc2cc1-c1cnn(C2CCOCC2)c1 [Example 44, 5-(6-Methyl-7-(1-(tetrahydro-2H-pyran-4-yl)-1H-pyrazol-4-yl)imidazo[1,2-b]pyridazin-3-yl)-2-(pyrazin-2-yl)-1,8-naphthyridine] | –
1 to 5 | Cc1nn2c(-c3ccnc4nc(-c5ccn(C)n5)ccc34)cnc2cc1-c1cnn(C(C)C)c1 [Example 45, 5-(7-(1-Isopropyl-1H-pyrazol-4-yl)-6-methylimidazo[1,2-b]pyridazin-3-yl)-2-(1-methyl-1H-pyrazol-3-yl)-1,8-naphthyridine] | –
5 to 100 | Cc1nn2c(-c3ccnc4nc(-c5ccn(C)n5)ccc34)cnc2cc1-c1ccc(CN2CCC2)cc1 [Example 46, 5-(7-(4-(Azetidin-1-ylmethyl)phenyl)-6-methylimidazo[1,2-b]pyridazin-3-yl)-2-(1-methyl-1H-pyrazol-3-yl)-1,8-naphthyridine] | –
1 to 5 | Cc1nn2c(-c3ccnc4nc(-c5ccn(C)n5)ccc34)cnc2cc1-c1ccc(C(=O)N(C)C)cc1 [Example 47, N,N-dimethyl-4-(6-methyl-3-(7-(1-methyl-1H-pyrazol-3-yl)-1,8-naphthyridin-4-yl)imidazo[1,2-b]pyridazin-7-yl)benzamide] | –
< 1 | Cc1cc(-c2ccc3c(-c4cnc5cc(-c6ccc(CN7CCC7)cc6)c(C)nn45)ccnc3n2)n[nH]1 [Example 48, 5-(7-(4-(Azetidin-1-ylmethyl)phenyl)-6-methylimidazo[1,2-b]pyridazin-3-yl)-2-(5-methyl-1H-pyrazol-3-yl)-1,8-naphthyridine] | –
< 1 | Cc1cc(-c2ccc3c(-c4cnc5cc(-c6ccc(CN7CCOCC7)cc6)c(C)nn45)ccnc3n2)n[nH]1 [Example 49, 4-(4-(6-methyl-3-(7-(5-methyl-1H-pyrazol-3-yl)-1,8-naphthyridin-4-yl)imidazo[1,2-b]pyridazin-7-yl)benzyl)morpholine] | –
< 1 | Cc1cc(-c2ccc3c(-c4cnc5cc(-c6cnn(C(C)C)c6)c(C)nn45)ccnc3n2)n[nH]1 [Example 50, 5-(7-(1-Isopropyl-1H-pyrazol-4-yl)-6-methylimidazo[1,2-b]pyridazin-3-yl)-2-(5-methyl-1H-pyrazol-3-yl)-1,8-naphthyridine] | –
– | Cc1nn2c(-c3ccnc4nc(-c5cnn(C)c5)ccc34)cnc2cc1-c1cnn(C(C)C)c1 [Example 51, 5-(7-(1-Isopropyl-1H-pyrazol-4-yl)-6-methylimidazo[1,2-b]pyridazin-3-yl)-2-(1-methyl-1H-pyrazol-4-yl)-1,8-naphthyridine] | 1 to 5
< 1 | CCn1cnc(-c2ccc3c(-c4cnc5cc(-c6ccc(CN7CCCC7)cc6)c(C)nn45)ccnc3n2)c1 [Example 52, 2-(1-Ethyl-1H-imidazol-4-yl)-5-(6-methyl-7-(4-(pyrrolidin-1-ylmethyl)phenyl)imidazo[1,2-b]pyridazin-3-yl)-1,8-naphthyridine] | –
1 to 5 | CCn1cnc(-c2ccc3c(-c4cnc5cc(-c6ccc(CN7CCOCC7)cc6)c(C)nn45)ccnc3n2)c1 [Example 53, 4-(4-(3-(7-(1-Ethyl-1H-imidazol-4-yl)-1,8-naphthyridin-4-yl)-6-methylimidazo[1,2-b]pyridazin-7-yl)benzyl)morpholine] | –
< 1 | CCn1cnc(-c2ccc3c(-c4cnc5cc(-c6ccc(CN(C)C)cc6)c(C)nn45)ccnc3n2)c1 [Example 54, 1-(4-(3-(7-(1-Ethyl-1H-imidazol-4-yl)-1,8-naphthyridin-4-yl)-6-methylimidazo[1,2-b]pyridazin-7-yl)phenyl)-N,N-dimethylmethanamine] | –
1 to 5 | CCn1cnc(-c2ccc3c(-c4cnc5cc(-c6cnn(C(C)C)c6)c(C)nn45)ccnc3n2)c1 [Example 55, 2-(1-Ethyl-1H-imidazol-4-yl)-5-(7-(1-isopropyl-1H-pyrazol-4-yl)-6-methylimidazo[1,2-b]pyridazin-3-yl)-1,8-naphthyridine] | –
1 to 5 | CCn1cnc(-c2ccc3c(-c4cnc5cc(-c6ccc(CN7CCC7)cc6)c(C)nn45)ccnc3n2)c1 [Example 56, 5-(7-(4-(Azetidin-1-ylmethyl)phenyl)-6-methylimidazo[1,2-b]pyridazin-3-yl)-2-(1-ethyl-1H-imidazol-4-yl)-1,8-naphthyridine] | –
1 to 5 | CCn1cnc(-c2ccc3c(-c4cnc5cc(-c6ccc(CN7CC(F)(F)C7)cc6)c(C)nn45)ccnc3n2)c1 [Example 57] | –

SMILES | IC50 [1] [nM] | IC50 [nM]
Cc1nn2c(-c3ccnc4nc(-c5ccccn5)ccc34)cnc2cc1-c1cnn([C@H]2CC[C@H](O)CC2)c1 [Example 37, (1R,4R)-4-(4-(6-Methyl-3-(7-(pyridin-2-yl)-1,8-naphthyridin-4-yl)imidazo[1,2-b]pyridazin-7-yl)-1H-pyrazol-1-yl)cyclohexan-1-ol] | < 1 | –
